One may read the IC50 as the concentration that gives 50% inhibition.

Like-named read-outs stand apart in the source and are kept apart here.

Experimental findings from patent US7626027B2, “Substituted 1H-pyrrolo[2,3-c]pyridine-2-carboxamides and related analogs as inhibitors of casein kinase Iε” (Aventis Pharmaceuticals Inc, priority 2003, dated 2009) are described below.

This experiment addresses T1, casein kinase 1ε (Homo sapiens, UniProt P49674).
T1 construct: made in house
In words: Casein Kinase Epsilon 33P-ATP Filter Plate Assay. The class given is biochemical. The source says: Casein Kinase Epsilon ^33P-ATP Filter Plate Assay for Screening CK1 Inhibitors Purpose: This assay measures the effect of compounds to inhibit the phosphorylation of the substrate casein by the enzyme casein kinase 1ε using an in vitro ^33P-ATP filtration assay.
Equipment: • Beckman Biomek 2000 Liquid Handling Robot • Beckman Multimek 96 Automated 96 Channel Pipettor • Millipore Vacuum Manifold Basic Kit # MAVM0960R • Titertek Multidrop Liquid Dispenser • Packard TopCount NXT Liquid Scintillation Counter
Enzyme: • Casein Kinase 1ε final concentration 0.58 mg/ml obtained from fermentation and purification processes performed by Aventis Pharmaceuticals Inc., France. The above are stored as 100 μL aliquots at minus 80° C.
Compounds: • Compounds for testing are supplied as frozen 10 mM compound stock dissolved in 100% DMSO. Assay Conditions:
Final total assay volume per well is equal to 50 μL made up as follows: • 5 μL of diluted compound stock ([…], 0.1, 0.01 or 0.001 μM), • 5 μL of dephosphorylated casein final concentration 0.2 μg/μL, • 20 μL of CK1ε final concentration 3 ng/μL, and • 20 μL of γ-^33P-ATP final concentration 0.02 μCi/μL mixed with cold ATP (10 μM final). Methodology: • 1. 500 mL of fresh assay buffer is made: 50 mM Tris pH 7.5, 10 mM MgCl2, 2 mM DTT and 1 mM EGTA • 2. Compounds to be evaluated are obtained as 10 μL of 10 mM stock dissolved in 100% DMSO. Using a Biomek 2000 liquid handling robot, serial dilutions are made to yield 10, 1, 0.1, 0.01 and 0.001 μM final compound dilutions added as 5 μL additions to Falcon U bottom plates. […] A routine screening assay will consist of 32 compounds, which equals 4 assay plates. • 3. Assay plate maps are set up according to the following pattern
• 4. […] Finally 20 μL […] (0.02 μCi/μL)/10 μM cold ATP are added (equals approximately 2×10^6 CPM per well). • 6. The Falcon U-Bottom assay plate containing the above 50 μL reaction volume is vortexed and then incubated at room temperature for 2 hours. • 7. At the end of 2 hours, the reaction is stopped by the addition of 65 μL of ice cold 2 mM cold ATP (made up in assay buffer) to the assay plates using a Beckman Multimek • 8. At the same time 25 μL 100% ice cold TCA made up in distilled H2O is added to a matching number of Millipore MAPH filter plates. • 9. Using a handheld 8-channel pipettor, 100 μL of the reaction mixture is transferred from the Falcon U-Bottom Plate to the Millipore MAPH filter plates presoaked with TCA. • 10. The Millipore MAPH filter plates are mixed gently and allowed to sit at room temperature for at least 30 minutes to precipitate the proteins. • 11. After 30 minutes the filter plates are placed on a Millipore vacuum manifold and filtered at no more than 8 mm Hg as the MAPH filters tend to “air lock” at higher vacuum settings. • 12. The filter plates are sequentially washed and filtered with 2×150 μL 20% TCA, 2×150 μL 10% TCA and 2×150 μL 5% TCA (total of 6 washes per plate/900 μL per well). • 13. Plates are allowed to dry overnight at room temperature. The next day 40 μL Packard Microscint-20 Scintillation Fluid is added per well using a Titertek Multidrop dispenser; the plates are sealed and counted for 2 minutes/well in a Packard Topcount NXT Scintillation Counter (CPM values/well are captured). Calculation: • 1. Counts Per Minute (CPM) data is captured and imported into a proprietary data calculation and archiving database (Activity Base by IDBS version 5.0). • 2. Column 1 for each plate reflects total phosphorylation activity of the enzyme in the absence of any inhibiting compound and thus represents 100%. Column 12 reflects any nonspecific phosphorylation/retained radioactivity activity in the absence of inhibiting compound and enzyme.

T1 sequence (P49674 whole entry): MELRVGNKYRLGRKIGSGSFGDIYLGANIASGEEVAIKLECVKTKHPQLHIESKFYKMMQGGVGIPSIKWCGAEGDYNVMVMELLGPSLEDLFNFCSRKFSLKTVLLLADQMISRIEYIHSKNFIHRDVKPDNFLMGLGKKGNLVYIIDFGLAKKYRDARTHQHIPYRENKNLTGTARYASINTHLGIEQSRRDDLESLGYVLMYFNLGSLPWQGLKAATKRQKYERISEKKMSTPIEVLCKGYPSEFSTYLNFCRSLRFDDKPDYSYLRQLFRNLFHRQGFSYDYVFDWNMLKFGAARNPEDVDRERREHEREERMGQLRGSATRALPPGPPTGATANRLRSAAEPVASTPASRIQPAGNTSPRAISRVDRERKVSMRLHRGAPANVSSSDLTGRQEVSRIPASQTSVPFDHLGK

Compound `CCCn1c(C(N)=O)c(Sc2ccccc2)c2ncccc21` [Ia-37, 3-Phenylsulfanyl-1-propyl-1H-pyrrolo[3,2-b]pyridine-2-carboxylic acid amide] showed an IC50 of 123 nM. The same measure, in the same setting: with `CNC(=O)c1[nH]c2cccnc2c1Sc1cccc(OC(F)(F)F)c1` [Ia-30] the figure was greater than 10000 nM; with `NC(=O)c1[nH]c2cccnc2c1Sc1ccc([N+](=O)[O-])cc1` [Ia-17, 3-(4-Nitro-phenylsulfanyl)-1H-pyrrolo[3,2-b]pyridine-2-carboxylic acid amide], 9790 nM. Same read-out and setting: the result for `NC(=O)c1[nH]c2ccncc2c1Sc1cccc(F)c1` [Ib-2] reads 466 nM. In turn, `NC(=O)c1[nH]c2cnccc2c1S(=O)(=O)c1ccccc1` [Ic-2, 3-Benzenesulfonyl-1H-pyrrolo[2,3-c]pyridine-2-carboxylic acid amide] yielded an IC50 greater than 10000 nM. `NC(=O)c1[nH]c2cccnc2c1Sc1cccc(OC(F)(F)F)c1` [Ia-24, 3-(3-Trifluoromethoxy-phenylsulfanyl)-1H-pyrrolo[3,2-b]pyridine-2-carboxylic acid, amide] came in with an IC50 of 219 nM. Still for that read-out and setting: the result for `NC(=O)c1[nH]c2ccncc2c1Sc1ccc(Cl)cc1` [Ib-3] reads 7960 nM; that for `NC(=O)c1[nH]c2cnccc2c1Sc1cccc(F)c1` [Ic-3, 3-(3-Fluoro-phenylsulfanyl)-1H-pyrrolo[2,3-c]pyridine-2-carboxylic acid amide], 1840 nM. In the case of `NC(=O)c1[nH]c2cccnc2c1Sc1ccncc1` [Ia-27, 3-(Pyridin-4-sulfanyl)-1H-pyrrolo[3,2-b]pyridine-2-carboxylic acid amide], 2980 nM corresponded to half-maximal inhibition (IC50). Same read-out and setting: the result for `NC(=O)c1[nH]c2cccnc2c1Sc1cccc(N)c1` [Ia-16, 3-(3-Amino-phenylsulfanyl)-1H-pyrrolo[3,2-b]pyridine-2-carboxylic acid amide] reads 424 nM; that for `NC(=O)c1[nH]c2cccnc2c1Sc1ccccn1` [Ia-26, 3-(Pyridin-2-sulfanyl)-1H-pyrrolo[3,2-b]pyridine-2-carboxylic acid amide], 190 nM. Still for that read-out and setting: the result for `NC(=O)c1[nH]c2cnccc2c1Sc1ccccn1` [Ic-9, 3-(Pyridin-2-sulfanyl)-1H-pyrrolo[2,3-c]pyridine-2-carboxylic acid amide] reads 291 nM.

Regarding `CNC(=O)c1[nH]c2cccnc2c1Sc1cccc(F)c1` [Ia-32], where the note is “phosphorylation of casein, 10 μM cold ATP, 2 hours room temperature, * denotes average of 2 or more determinations, read-out: Casein Kinase Iε 33P-ATP Filter Plate Assay IC50”, the concentration for half-maximal inhibition (IC50) is greater than 10000 nM. The compound `COc1ccccc1Sc1c(C(N)=O)[nH]c2cnccc12` [Ic-8, 3-(2-Methoxy-phenylsulfanyl)-1H-pyrrolo[2,3-c]pyridine-2-carboxylic acid amide] yielded an IC50 of 442 nM. Still for that read-out and setting: the result for `NC(=O)c1[nH]c2cnccc2c1Sc1ccccc1` [Ic-1, 3-Phenylsulfanyl-1H-pyrrolo[2,3-c]pyridine-2-carboxylic acid amide] reads 388 nM.

For the compound `NC(=O)c1[nH]c2cnccc2c1Sc1ccccc1OC(F)(F)F` [Ic-7, 3-(2-Trifluoromethoxy-phenylsulfanyl)-1H-pyrrolo[2,3-c]pyridine-2-carboxylic acid amide], 1290 nM corresponded to half-maximal inhibition (IC50). The same measure, in the same setting: with `NC(=O)c1[nH]c2cccnc2c1Sc1cccc(C(F)(F)F)c1` [Ia-11, 3-(3-Trifluoromethyl-phenylsulfanyl)-1H-pyrrolo[3,2-b]pyridine-2-carboxylic acid, amide] the figure was 709 nM; with `Cc1ccccc1Sc1c(C(N)=O)[nH]c2cccnc12` [Ia-19, 3-o-Tolylsulfanyl-1H-pyrrolo[3,2-b]pyridine-2-carboxylic acid amide], 140 nM. Take `NC(=O)c1[nH]c2cccnc2c1Sc1cccc(Cl)c1Cl` [Ia-9, 3-(2,3-Dichlorophenylsulfanyl)-1H-pyrrolo[3,2-b]pyridine-2-carboxylic acid amide]: the IC50 was greater than 10000 nM.

With `Cc1cc(C)cc(Sc2c(C(N)=O)[nH]c3cccnc23)c1` [Ia-21, 3-(3,5-Dimethyl-phenylsulfanyl)-1H-pyrrolo[3,2-b]pyridine-2-carboxylic acid amide], the IC50 was determined as 6880 nM. Same read-out and setting: with `COc1ccc2[nH]c(C(N)=O)c(Sc3cccc(F)c3)c2n1` [Ia-35, 3-(3-Fluoro-phenylsulfanyl)-5-methoxy-1H-pyrrolo[3,2-b]pyridine-2-carboxylic acid amide] the figure was 896 nM. Same read-out and setting: with `COc1ccccc1Sc1c(C(N)=O)[nH]c2cccnc12` [Ia-14, 3-(2-Methoxy-phenylsulfanyl)-1H-pyrrolo[3,2-b]pyridine-2-carboxylic acid amide] the figure was 669 nM; with `NC(=O)c1[nH]c2cccnc2c1Sc1cccs1` [Ia-28, 3-(Thiophen-2-ylsulfanyl)-1H-pyrrolo[3,2-b]pyridine-2-carboxylic acid amide], 53 nM; with `NC(=O)c1[nH]c2cnccc2c1Sc1cccc(Cl)c1` [Ic-5, 3-(3-Chloro-phenylsulfanyl)-1H-pyrrolo[2,3-c]pyridine-2-carboxylic acid amide], 375 nM. Same read-out and setting: the result for `NC(=O)c1[nH]c2ccncc2c1Sc1ccccc1` [Ib-1, 3-Phenylsulfanyl-1H-pyrrolo[3,2-c]pyridine-2-carboxylic acid amide] reads 1130 nM. `CNC(=O)c1[nH]c2cccnc2c1Sc1cccc(Cl)c1` [Ia-31] showed an IC50 greater than 10000 nM. Still for that read-out and setting: the result for `COc1cccc(Sc2c(C(N)=O)[nH]c3cnccc23)c1` [Ic-4, 3-(3-Methoxy-phenylsulfanyl)-1H-pyrrolo[2,3-c]pyridine-2-carboxylic acid amide] reads 397 nM; that for `CNC(=O)c1c(Sc2ccccc2)c2ncccc2n1C` [Ia-29, 1-Methyl-3-phenylsulfanyl-1H-pyrrolo[3,2-b]pyridine-2-carboxylic acid methylamide], greater than 10000 nM. The same measure, in the same setting: the result for `CCc1ccccc1Sc1c(C(N)=O)[nH]c2cccnc12` [Ia-23, 3-(2-Ethyl-phenylsulfanyl)-1H-pyrrolo[3,2-b]pyridine-2-carboxylic acid amide] reads 6480 nM. On the same count and under the same terms, the result for `NC(=O)c1[nH]c2cccnc2c1Sc1cc(Cl)ccc1Cl` [Ia-13, 3-(2,5-Dichloro-phenylsulfanyl)-1H-pyrrolo[3,2-b]pyridine-2-carboxylic acid amide] reads greater than 10000 nM; that for `Cn1c(C(N)=O)c(Sc2ccccc2)c2ncccc21` [Ia-34, 1-Methyl-3-phenylsulfanyl-1H-pyrrolo[3,2-b]pyridine-2-carboxylic acid amide], 339 nM. In turn, `CNC(=O)c1[nH]c2cccnc2c1Sc1ccccc1` [Ia-33, 3-Phenylsulfanyl-1H-pyrrolo[3,2-b]pyridine-2-carboxylic acid methylamide] yielded an IC50 greater than 10000 nM. Still for that read-out and setting: with `NC(=O)c1[nH]c2cnccc2c1Sc1ccccc1C(F)(F)F` [Ic-6, 3-(2-Trifluoromethyl-phenylsulfanyl)-1H-pyrrolo[2,3-c]pyridine-2-carboxylic acid amide] the figure was 759 nM. On the same count and under the same terms, with `COc1cccc(Sc2c(C(N)=O)[nH]c3ccc(OC)nc23)c1` [Ia-36, 3-(3-Methoxy-phenylsulfanyl)-5-methoxy-1H-pyrrolo[3,2-b]pyridine-2-carboxylic acid amide] the figure was 86 nM.
